Literature values as cited in US20160199437A1, “THERAPEUTIC COMPOSITIONS INCLUDING IRON CHELATORS AND USES THEREOF” (priority 2015, published 2016).

Test system: several mammalian cell types
Conditions: energy-independent manner; cited from earlier work

In the case of 2′,6′-Dmt-D-Arg-Phe-Lys-NH2, the “penetration of the plasma membrane” value is given as “readily penetrates the plasma membrane”.
